According to patent USRE36187E, “Acyclic pyrrolo [2,3-d]pyrimidine analogs as antiviral agents” (The Regents of the University of Michigan, priority 1994, dated 1999):

How the values were obtained:
[1] = Visual cytotoxicity in BSC-1 cells; type: cell-based, African green monkey; settings: monkey, visual cytotoxicity at time of HSV-1 plaque enumeration, read-out: 50% Inhibitory Concentration, Cytotoxicity BSC
Source text: Cytotoxicity produced in HFF and BSC-1 cells was estimated by visual scoring of cells not affected by virus infection in the HCMV and HSV-1 plaque reduction assays. Cytopathology was estimated at 35- and 60-fold magnification and scored on a zero to four plus basis. Wells were scored on the day of staining.

[2] = tested on: HCMV DNA synthesis; experiment: HCMV DNA synthesis by dot-blot hybridization; type: cell-based, human cytomegalovirus; settings: Human betaherpesvirus 5; Table 2; read-out: 50% Inhibitory Concentration, HCMV DNA Synthesis
Procedure: The amount of HCMV DNA synthesis was determined in two types of experiments: (a) as an integral part of HCMV titer (yield) reduction experiments and (b) as separate experiments to determine only the amount of viral DNA synthesis in the absence or presence of test compounds.
HFF cells were planted in 25 cm^2 flasks and infected with HCMV as described in part 2 and incubated at 37° C. Before harvesting at selected times by the addition of 0.1 volume of 0.2M EDTA, an aliquot of medium was removed for determination of HCMV titer. After harvesting cells into the medium, aliquots were retained for determination of HCMV DNA by hybridization.
HFF cells were planted in 96-well cluster plates at 20,000 cell/well in 200 μl of growth medium [MEM(E)] with 1.1 gm/liter NaHCO3 and 10% fetal bovine serum. […]
Following hybridization, the membrane was washed sequentially in 100 ml 2×SSC at room temperature twice each for 5 minutes, 100 ml 2×SCC plus 1% SDS at 65° C. twice each for 30 minutes and then 100 ml 0.1×SSC at room temperature twice each for 30 minute. The membrane was dried at room temperature and each filtration spot was cut from the membrane and placed into 4 ml of toluene/DPO scintillant and hybridized label counted in a liquid scintillation spectrometer.

[3] = tested on: MCMV; experiment: Mortality of mice infected with murine cytomegalovirus; type: in vivo
Procedure: Compound UMJD 183 was tested in mice infected with murine cytomegalovirus (MCMV). This animal model has been recognized as having capabilities predictive of efficacy in humans.
Compound UMJD 183 and the drug ganciclovir (DHPG) were administered to groups of 15 mice each at doses and times of administration shown in Table 3. Each compound at all doses was administered intraperitoneally twice daily for five days beginning at either 6, 24 or 48 hours after virus inoculation. Animals were observed daily and the number dying each day recorded.
^a Animlas were treated i.p. twice daily for 5 days with the doses
stated above. Treatment was initiated at the times indicated following

[4] = 0.6 mg/kg i.p. twice daily, from 6 h
[5] = 0.6 mg/kg i.p. twice daily, from 24 h
[6] = 0.6 mg/kg i.p. twice daily, from 48 h
[7] = 1.9 mg/kg i.p. twice daily, from 6 h
[8] = 1.9 mg/kg i.p. twice daily, from 24 h
[9] = 1.9 mg/kg i.p. twice daily, from 48 h
[10] = 5.6 mg/kg i.p. twice daily, from 6 h
[11] = 5.6 mg/kg i.p. twice daily, from 24 h
[12] = 5.6 mg/kg i.p. twice daily, from 48 h
[13] = 16.7 mg/kg i.p. twice daily, from 6 h
[14] = 16.7 mg/kg i.p. twice daily, from 24 h
[15] = 16.7 mg/kg i.p. twice daily, from 48 h

Nc1nc(O)c2ncn(COC(CO)CO)c2n1 [Ganciclovir (DHPG), reference compound]
CC50 [1]: > 100 µM | IC50 [2]: 1200 nM | MDD (Mean Day of Death) [3, 4]: 4.6 | Mortality Percent [3, 4]: 93% | MDD (Mean Day of Death) [3, 5]: 5.4 | Mortality Percent [3, 5]: 80% | MDD (Mean Day of Death) [3, 6]: 5.3 | Mortality Percent [3, 6]: 93% | MDD (Mean Day of Death) [3, 7]: 5.4 | Mortality Percent [3, 7]: 33% | MDD (Mean Day of Death) [3, 8]: 4.9 | Mortality Percent [3, 8]: 80% | MDD (Mean Day of Death) [3, 9]: 4.9 | Mortality Percent [3, 9]: 73% | MDD (Mean Day of Death) [3, 10]: 4.2 | Mortality Percent [3, 10]: 33% | MDD (Mean Day of Death) [3, 11]: 5.3 | Mortality Percent [3, 11]: 47% | MDD (Mean Day of Death) [3, 12]: 5.5 | Mortality Percent [3, 12]: 67% | MDD (Mean Day of Death) [3, 13]: 3.8 | Mortality Percent [3, 13]: 27% | MDD (Mean Day of Death) [3, 14]: 5.3 | Mortality Percent [3, 14]: 47% | MDD (Mean Day of Death) [3, 15]: 5.5 | Mortality Percent [3, 15]: 53%
